Measured values: ChEMBL document CHEMBL1124934, “Synthesis and structure-activity relationships of dynorphin A-(1-8) amide analogues” (J Med Chem, 1990)

Species on record: Mus musculus
Assay: animal or person
Conditions: iv

`CN1CC[C@]23c4c5ccc(O)c4O[C@H]2[C@@H](O)C=C[C@H]3[C@H]1C5` [MORPHINE] showed an ED50 of 1.85 mg/kg.
